In one experiment the test system is JNK in 1799 cells. The experiment can be described thus: Immune complex kinase assay for JNK. The settings on record: 10^−7 M. In kind it is cell-based, human. The procedure:
Approximately 5×10^6 1799 cells were treated with 10^−7 M deguelin or 0.1% DMSO for various time periods in the absence of any additional stimulatory growth factors. The cells were then treated with 50 ng/mL IGF-I for 15 minutes to activate MAPK. Total cell extracts were prepared in lysis buffer (Lonardo et al. 2002), and ERK-1/2 or c-Jun N-terminal kinase (JNK) were immunoprecipitated from 100 μg of each cell extract using antibodies (1 μg) that recognize ERK1/2 or JNK (Santa Cruz Biotechnology) and protein-A sepharose beads (20 μL) (Amersham Pharmacia Biotech). Kinase assays were performed by incubating the beads with 30 μL of kinase buffer to which 5 μCi of [γ^32P]ATP (2000 cpm/pmol) and 1 μg of substrate (myelin basic protein [MBP; Calbiochem, La Jolla, Calif.] or GST-cJun [Santa Cruz Biotechnology]) were added, as previously described (Lee et al., 2002). The samples were suspended in Laemmli buffer, boiled for 5 min, and then analyzed by SDS-polyacrylamide gel clectrophoresis. The gel was dried and autoradiographed. Total cell lysates from Jurkat cells (Upstate Biotechnology, Inc.) and H1299 NSCLC treated with 50 ng/mL IGF-I for 15 min were used as positive controls. Changes in the level of phosphorylation in MBP or GST-cJun reflect changes in Erk1/2 and JNK activity, respectively.

In experiment [1] the test system is 1799 cells. As to the kind of experiment: MTT proliferation assay, 1799 cells. In kind it is cell-based, human. The procedure: (§1) To measure the effects of deguelin on cell proliferation, NHBE, 1799, 1198, 1170-1, and HB56B cells were plated at concentrations of 2×10^3 to 4×10^3 cells/well in 96-well plates. The next day, cells were treated with either 0.1% DMSO as a diluent control or various concentrations of deguelin (final DMSO concentration=0.1%). At the end of the assay time period, cell proliferation was measured by the 3-(4,5-dimethylthiazol-2-yl)-2,5-diphenyltetrazolium bromide (MTT) assay as described (Lee et al., 2002). Six replicate wells were used for each analysis, and data from replicate wells are presented as means with 95% confidence intervals (CIs). For some experiments, the drug concentration required to inhibit cell growth by 50% (IC50) was determined by interpolation from dose-response curves. At least three independent experiments were performed.
To determine whether deguelin-induced antiproliferative effects on premalignant HBE cells were mediated through the inhibition of the PI3K/Akt pathway, 2×10^5 1799 cells/well or 1×10 ^6 squamous HBE cells/well in six-well plates were infected with 5×10 ^3 particles/cell of a control virus (Ad5CMV) or with 1×10^3 or 5×10^3 particles/cell of Ad5CMV-MyrAkt-HA, an adenoviral vector that expresses a constitutively active Akt. (MyrAkt) in KSFM. After 1 day of infection, cells were treated with 10^−7M or 10^−6M deguelin, 2×10^−6 M or 4×10^−6M N-(4-hydroxyphenyl)retinamide (4-HPR), or 0.1% DMSO as a control and then incubated for 1 or 2 days. Apoptosis was analyzed using the APO-BrdU staining kit for TUNEL, Western blot analyses for caspase-3, and the cleavage of PARP.

In experiment [2] the test system is 1799 cells. As to the kind of experiment: Immunoblot of apoptosis-related enzymes and Bcl family members. Format: cell-based, human. The settings on record: 3 days. The procedure:
Whole cell lysates from 1×10^6 cells were prepared in lysis buffer as described (Lonardo et al., 2002). Equivalent amounts of protein were resolved by sodium dodecyl sulfate (SDS)-polyacrylamide gels (7.5%-12%) and transferred to a nitrocellulose membrane. After the membrane was blocked in Tris-buffered saline (TBS) containing 0.05% Tween 20 (TBST) and 5% (w/v) nonfat powdered milk, the membrane was incubated with primary antibody at the appropriate dilution in TBS-5% nonfat milk at 4° C. for 16 h. The membrane was then washed multiple times with TBST and incubated with the appropriate horseradish peroxidaseconjugated secondary antibody for 1 h at room temperature. The protein-antibody complexes were detected by enhanced chemilurminescence (ECL kit; Amersham, Arlington Heights, Ill.), according to the manufacturer's recommended protocol.
The following antibodies and working dilutions were used for the Western blots: rabbit polyclonal antibodies against human phosphorylated Akt (pAkt) (Ser473) (1:1000), Akt (1:1000), phosphorylated glycogen synthase kinase 3β (pGSK-3β) (Ser9) (1:1000), and mouse monoclonal antibody against human antiphosphorylated MAPK (anti-pMAPK) (Thr202/Tyr204) (1:500) (Cell Signaling Technology, Beverly, Mass.); rabbit polyclonal anti-GSK-3α/β (1:1000) (BD Transduction Laboratories, Lexington, Ky.); rabbit polyclonal anti-Bax and anti-caspase-3 antibodies (1:2000) (Pharmingen, San Diego, Calif.); rabbit polyclonal anti-Bcl-2 (1:1000) and rabbit polyclonal antipoly(ADP-ribose) polymerase (PARP) antibody (1:1000) (VIC5; Roche Molecular Biochemicals, Indianapolis, Ind.); rabbit polyclonal anti-hemagglutinin (HA) antibody (1:1000), goat polyclonal antibodies against extracellular related kinase 1(Erk-1; 1:1000), Erk-2 (1:1000), and β-actin (1:4000) (Santa Cruz Biotechnology, Inc., Santa Cruz, Calif.); rabbit anti-mouse immunoglobulin G (IgG)-horseradish peroxidase conjugate (1:2000) (DAKO, Carpinteria, Calif.); and donkey anti-rabbit IgG-horseradish peroxidase conjugate (1:2000) and rabbit anti-goat IgG-horseradish peroxidase conjugate (1:2000) (Amersham Pharmacia Biotech, Arlington Heights, Ill.).
Background: A western blot detects proteins with antibodies after separation by electrophoresis.

For experiment [3], the system named is premalignant and malignant HBE cell lines. As to the kind of experiment: MTT proliferation assay, premalignant and malignant HBE cell lines. In kind it is cell-based. The settings on record: Homo sapiens, range tested 10^−9 M to 10^−7 M, read-out: IC50 (growth inhibition). The method, then: as §1
Experiment [4] has as its system 1799, 1198 and 1170-1 cells. The experiment can be described thus: Cell cycle analysis by flow cytometry, HBE cell lines. In kind it is cell-based, human. To be noted: 10^−8 M or 10^−7 M, 3 days. The method, then: NHBE and 1799 cells were plated at a concentration of 2×10^5 cells/well in six-well plates. The next day, cells were treated with deguelin (various concentrations) or DMSO (0.1%) for 3 days to achieve maximal antiproliferative effects (determined from growth curves). All cells (nonadherent and adherent) were harvested, fixed with 1% paraformaldehyde and 70% ethanol, stained with 50 μg/mL propidium iodide, and subjected to flow cytometric analysis to determine the percentage of cells in specific phases of the cell cycle (G1, S, and G2/M) as described (Sun et al., 1997). Flow cytometric analysis was performed using a Coulter EPICS Profile II flow cytometer (Coulter Corp., Miami, Fla.) equipped with a 488-nm argon laser. Approximately 10 000 events (cells) were evaluated for each sample. Two independent experiments were performed and one is presented.
For orientation: A flow cytometer gives signals particle by particle.

Broadly, the IC50 is the concentration at which inhibition is half-maximal.

On to `COc1cc2c(cc1OC)[C@@H]1C(=O)c3ccc4c(c3O[C@@H]1CO2)C=CC(C)(C)O4` [deguelin, Deguelin], for which the JNK activity result with JNK in 1799 cells is reported as “not affected”. Besides, the “reversibility of effects on cell growth” value with 1799 cells [1] (10^−7 M for 1, 2 or 3 days, then 5 days without deguelin) is reported as “irreversible”. The “decrease in cell growth” value in the experiment with 1799 cells [1] (10^−7 M, 1 day) is given as 67.1%. In addition, the effect on growth result in the experiment with 1799 cells [1] (1799 cells infected with Ad5CMV-MyrAkt-HA, 10^−6 M) is on record as “did not decrease the growth”. For the same molecule, the “decrease in growth relative to untreated control” value in the experiment on 1799 cells [1] (1799 cells uninfected or infected with 5×10^3 particles/cell Ad5CMV, 10^−7 M, 2 days) stood at 54%. Moreover, in the experiment on 1799 cells [1] (Homo sapiens, read-out: growth as percent of control cell growth), the activity at 0.1 µM is 85%. In addition, the caspase-3 activation result in the experiment with 1799 cells [2] (10^−8 M or 10^−7 M) is recorded as “activated caspase-3”. Further, in the experiment on 1799 cells [2], the Bax level entry was “dose dependent increase in the level of Bax”, the Bcl-2 expression entry is “slight decrease in Bcl-2 expression” and the Bcl-xL level entry is “did not affect the level of Bcl-xL”. Further, in experiment [3], the IC50 was below 10 nM. Further, the cell cycle distribution result in experiment [4] was “accumulated in the G2/M phase”.
